These results are taken from patent US4550186A, “Binuclear copper (II) carboxylates formed from amine-carboxyboranes” (Duke University, priority 1983, dated 1985).

For one assay, the target named is T1, ribonucleotide reductase (Mus musculus, UniProt P07742+P11157).
T1 construct: endogenous in cells; host or cells: Ehrlich ascites tumor cells
T1 sequence (P07742 1-792): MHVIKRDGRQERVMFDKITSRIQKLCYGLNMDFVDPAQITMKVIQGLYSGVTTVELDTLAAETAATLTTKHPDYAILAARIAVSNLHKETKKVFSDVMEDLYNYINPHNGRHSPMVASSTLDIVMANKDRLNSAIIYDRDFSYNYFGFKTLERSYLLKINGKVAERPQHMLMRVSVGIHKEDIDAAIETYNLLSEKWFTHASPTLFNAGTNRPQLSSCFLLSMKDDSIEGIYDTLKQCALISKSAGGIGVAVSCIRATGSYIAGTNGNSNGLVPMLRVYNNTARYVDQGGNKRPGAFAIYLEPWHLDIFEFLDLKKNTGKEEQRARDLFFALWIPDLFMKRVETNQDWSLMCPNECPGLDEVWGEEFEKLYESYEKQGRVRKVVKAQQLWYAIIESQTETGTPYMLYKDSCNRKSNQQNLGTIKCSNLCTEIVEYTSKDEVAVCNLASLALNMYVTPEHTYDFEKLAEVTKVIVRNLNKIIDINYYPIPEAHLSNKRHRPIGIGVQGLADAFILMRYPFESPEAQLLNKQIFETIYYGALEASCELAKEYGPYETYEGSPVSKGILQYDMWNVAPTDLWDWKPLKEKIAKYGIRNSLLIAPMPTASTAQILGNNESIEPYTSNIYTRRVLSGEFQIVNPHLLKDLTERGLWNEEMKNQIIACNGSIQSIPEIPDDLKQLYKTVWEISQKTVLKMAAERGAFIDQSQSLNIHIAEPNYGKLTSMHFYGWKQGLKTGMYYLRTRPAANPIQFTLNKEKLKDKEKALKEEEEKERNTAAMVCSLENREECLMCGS
T1 sequence (P11157 1-390): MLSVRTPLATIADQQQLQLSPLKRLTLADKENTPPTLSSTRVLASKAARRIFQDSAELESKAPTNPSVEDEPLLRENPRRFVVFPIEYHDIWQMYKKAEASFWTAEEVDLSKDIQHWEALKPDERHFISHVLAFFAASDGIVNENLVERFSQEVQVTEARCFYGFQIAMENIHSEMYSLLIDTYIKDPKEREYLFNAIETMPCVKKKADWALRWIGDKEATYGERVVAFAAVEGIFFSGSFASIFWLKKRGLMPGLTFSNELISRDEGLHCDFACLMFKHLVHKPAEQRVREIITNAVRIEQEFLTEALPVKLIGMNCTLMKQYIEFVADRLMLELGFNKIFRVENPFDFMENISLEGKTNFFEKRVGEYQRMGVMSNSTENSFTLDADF
The assay can be described thus: In vitro ribonucleotide reductase activity. Type of assay: biochemical. The note with it: 0.25 to 1.0 mM. How it is done: CF1 male mice (~30 g) were implanted with 2×10^6 Ehrlich ascites tumor cells, intraperitoneally on Day 0. Compound I was suspended by homogenation in 0.05% polysorbate.80-water and administered intraperitoneally at 10 and 20 mg/kg for 9 days to determine its effectiveness for inhibition of tumor growth. Mice were sacrificed on Day 10, and the ascites fluid was collected from the peritoneal cavity. The volume and ascrit (packed cell volume) were determined for each animal and the percent inhibition of tumor growth was calculated. For the metabolic studies, mice were treated on Days 8 and 9 with 10 mg/kg of Compound I, intraperitoneally. […]
Carbamyl phosphate synthetase activity was determined using the reaction medium of Kalman et al [Am. […] Citrulline formed from ornithine was measured at 490 nm by the method of Archibald [J. Biol. Chem., 156, 121 (1944)]. […] The ^14 CO2 generated in 15 min was trapped in 1M KOH and counted. Thymidylate synthetase activity was determined using a post-mitochondrial supernatant (9000 g×10 min) and 5 μCi of 5-^3 H-deoxyuridine monophosphate (14 Ci/mmol) according to the method of Kampf et al [ J. Med. Chem., 19, 903 (1976)]. ^14 C-Formate incorporation into purines was determined by the method of Spassova et al [Biochem. Pharmacol., 25, 923 (1976)] using 0.5 μCi of ^14 C-formic acid (52.0 mCi/mmol). […] The Rf value for xanthine monophosphate was scraped and counted. […]

The target in assay [1] is T2, ribosomal ribonucleic acid polymerase (Mus musculus, UniProt O35134+P70700).
T2 construct: enzymes isolated from nuclei; endogenous in cells; host or cells: Ehrlich ascites tumor cell nuclei, ammonium sulfate fraction
Kind of assay: In vitro ribosomal ribonucleic acid polymerase activity. The format is biochemical. The note with it: 0.25 to 1.0 mM. On the procedure:
CF1 male mice (~30 g) were implanted with 2×10^6 Ehrlich ascites tumor cells, intraperitoneally on Day 0. Compound I was suspended by homogenation in 0.05% polysorbate.80-water and administered intraperitoneally at 10 and 20 mg/kg for 9 days to determine its effectiveness for inhibition of tumor growth. Mice were sacrificed on Day 10, and the ascites fluid was collected from the peritoneal cavity. The volume and ascrit (packed cell volume) were determined for each animal and the percent inhibition of tumor growth was calculated. For the metabolic studies, mice were treated on Days 8 and 9 with 10 mg/kg of Compound I, intraperitoneally. The animal was sacrificed on Day 10 and the ascites fluid harvested. The in vitro metabolic studies were performed at […] final concentration of Compound I.
In vitro and in vivo nuclear deoxyribonucleic acid polymerase activity was determined on isolated Ehrlich ascites cell nuclei. The incubation was that described by Sawada et al [Can. Res., 34, 3341 (1974)] except that [methyl-^3 H] deoxythymidine triphosphate (82.4 Ci/mmol) was used. The acid insoluble nucleic acid was collected on GF/F filters and counted. Nuclear ribonucleic acid polymerase activities were determined on enzymes isolated from nuclei. […] The acid insoluble ribonucleic acid was collected on nitrocellulose filters and counted.

T2 sequence (P52432 whole entry): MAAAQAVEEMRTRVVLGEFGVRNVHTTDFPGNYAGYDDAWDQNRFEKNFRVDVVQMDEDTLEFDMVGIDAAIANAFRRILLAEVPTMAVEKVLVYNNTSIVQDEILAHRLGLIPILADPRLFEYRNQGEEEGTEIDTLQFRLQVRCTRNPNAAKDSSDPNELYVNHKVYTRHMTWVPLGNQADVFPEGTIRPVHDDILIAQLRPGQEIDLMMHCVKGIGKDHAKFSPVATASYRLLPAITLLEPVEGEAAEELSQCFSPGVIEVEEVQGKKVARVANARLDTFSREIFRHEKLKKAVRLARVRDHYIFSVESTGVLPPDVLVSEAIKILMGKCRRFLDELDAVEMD
T2 sequence (Q791N7 whole entry, further chain): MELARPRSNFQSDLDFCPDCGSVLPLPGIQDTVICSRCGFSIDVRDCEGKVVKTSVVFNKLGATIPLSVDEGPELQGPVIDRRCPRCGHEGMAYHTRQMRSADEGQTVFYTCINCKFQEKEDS
T2 sequence (P97304 whole entry, further chain): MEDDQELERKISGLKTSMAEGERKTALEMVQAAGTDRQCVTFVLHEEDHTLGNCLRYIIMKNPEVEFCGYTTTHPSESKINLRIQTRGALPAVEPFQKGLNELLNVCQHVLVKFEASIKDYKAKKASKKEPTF
T2 sequence (Q78WZ7 whole entry, further chain): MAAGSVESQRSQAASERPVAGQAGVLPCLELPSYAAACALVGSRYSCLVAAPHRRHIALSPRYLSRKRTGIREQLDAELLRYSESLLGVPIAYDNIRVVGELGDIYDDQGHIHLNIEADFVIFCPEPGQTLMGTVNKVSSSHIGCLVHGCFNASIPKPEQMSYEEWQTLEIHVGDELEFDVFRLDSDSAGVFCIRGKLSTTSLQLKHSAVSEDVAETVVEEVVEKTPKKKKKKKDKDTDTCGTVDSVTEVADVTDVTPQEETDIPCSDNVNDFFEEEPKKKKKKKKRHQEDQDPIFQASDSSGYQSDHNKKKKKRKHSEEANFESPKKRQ
T2 sequence (P70700 whole entry): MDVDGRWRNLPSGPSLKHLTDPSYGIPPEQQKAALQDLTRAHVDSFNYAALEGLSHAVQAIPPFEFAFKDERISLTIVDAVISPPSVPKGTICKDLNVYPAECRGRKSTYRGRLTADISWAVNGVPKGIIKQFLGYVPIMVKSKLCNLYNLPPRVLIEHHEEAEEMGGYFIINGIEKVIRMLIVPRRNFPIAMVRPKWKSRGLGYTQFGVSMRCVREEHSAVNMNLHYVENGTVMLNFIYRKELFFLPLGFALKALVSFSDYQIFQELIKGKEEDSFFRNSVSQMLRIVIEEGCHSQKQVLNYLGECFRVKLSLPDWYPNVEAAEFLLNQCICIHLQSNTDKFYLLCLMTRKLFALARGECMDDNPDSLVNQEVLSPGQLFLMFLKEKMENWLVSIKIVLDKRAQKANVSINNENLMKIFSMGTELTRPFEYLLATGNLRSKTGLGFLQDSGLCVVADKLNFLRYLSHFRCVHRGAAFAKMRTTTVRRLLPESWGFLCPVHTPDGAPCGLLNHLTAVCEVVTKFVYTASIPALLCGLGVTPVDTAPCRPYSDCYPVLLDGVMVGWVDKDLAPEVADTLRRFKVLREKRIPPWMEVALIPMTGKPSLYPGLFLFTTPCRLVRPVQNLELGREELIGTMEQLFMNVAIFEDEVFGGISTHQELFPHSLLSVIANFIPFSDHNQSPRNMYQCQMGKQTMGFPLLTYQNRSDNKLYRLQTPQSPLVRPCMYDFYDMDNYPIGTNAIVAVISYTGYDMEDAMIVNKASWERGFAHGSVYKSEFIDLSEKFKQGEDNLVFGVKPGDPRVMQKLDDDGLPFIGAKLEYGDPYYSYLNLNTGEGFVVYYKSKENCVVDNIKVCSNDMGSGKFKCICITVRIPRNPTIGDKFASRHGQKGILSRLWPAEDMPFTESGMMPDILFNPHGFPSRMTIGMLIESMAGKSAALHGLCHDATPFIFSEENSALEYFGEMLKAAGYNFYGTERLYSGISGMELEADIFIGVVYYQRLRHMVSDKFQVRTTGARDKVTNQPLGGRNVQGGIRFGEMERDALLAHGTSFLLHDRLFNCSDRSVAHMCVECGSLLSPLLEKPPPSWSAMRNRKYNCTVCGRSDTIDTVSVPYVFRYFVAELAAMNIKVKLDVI
T2 sequence (O35134 whole entry): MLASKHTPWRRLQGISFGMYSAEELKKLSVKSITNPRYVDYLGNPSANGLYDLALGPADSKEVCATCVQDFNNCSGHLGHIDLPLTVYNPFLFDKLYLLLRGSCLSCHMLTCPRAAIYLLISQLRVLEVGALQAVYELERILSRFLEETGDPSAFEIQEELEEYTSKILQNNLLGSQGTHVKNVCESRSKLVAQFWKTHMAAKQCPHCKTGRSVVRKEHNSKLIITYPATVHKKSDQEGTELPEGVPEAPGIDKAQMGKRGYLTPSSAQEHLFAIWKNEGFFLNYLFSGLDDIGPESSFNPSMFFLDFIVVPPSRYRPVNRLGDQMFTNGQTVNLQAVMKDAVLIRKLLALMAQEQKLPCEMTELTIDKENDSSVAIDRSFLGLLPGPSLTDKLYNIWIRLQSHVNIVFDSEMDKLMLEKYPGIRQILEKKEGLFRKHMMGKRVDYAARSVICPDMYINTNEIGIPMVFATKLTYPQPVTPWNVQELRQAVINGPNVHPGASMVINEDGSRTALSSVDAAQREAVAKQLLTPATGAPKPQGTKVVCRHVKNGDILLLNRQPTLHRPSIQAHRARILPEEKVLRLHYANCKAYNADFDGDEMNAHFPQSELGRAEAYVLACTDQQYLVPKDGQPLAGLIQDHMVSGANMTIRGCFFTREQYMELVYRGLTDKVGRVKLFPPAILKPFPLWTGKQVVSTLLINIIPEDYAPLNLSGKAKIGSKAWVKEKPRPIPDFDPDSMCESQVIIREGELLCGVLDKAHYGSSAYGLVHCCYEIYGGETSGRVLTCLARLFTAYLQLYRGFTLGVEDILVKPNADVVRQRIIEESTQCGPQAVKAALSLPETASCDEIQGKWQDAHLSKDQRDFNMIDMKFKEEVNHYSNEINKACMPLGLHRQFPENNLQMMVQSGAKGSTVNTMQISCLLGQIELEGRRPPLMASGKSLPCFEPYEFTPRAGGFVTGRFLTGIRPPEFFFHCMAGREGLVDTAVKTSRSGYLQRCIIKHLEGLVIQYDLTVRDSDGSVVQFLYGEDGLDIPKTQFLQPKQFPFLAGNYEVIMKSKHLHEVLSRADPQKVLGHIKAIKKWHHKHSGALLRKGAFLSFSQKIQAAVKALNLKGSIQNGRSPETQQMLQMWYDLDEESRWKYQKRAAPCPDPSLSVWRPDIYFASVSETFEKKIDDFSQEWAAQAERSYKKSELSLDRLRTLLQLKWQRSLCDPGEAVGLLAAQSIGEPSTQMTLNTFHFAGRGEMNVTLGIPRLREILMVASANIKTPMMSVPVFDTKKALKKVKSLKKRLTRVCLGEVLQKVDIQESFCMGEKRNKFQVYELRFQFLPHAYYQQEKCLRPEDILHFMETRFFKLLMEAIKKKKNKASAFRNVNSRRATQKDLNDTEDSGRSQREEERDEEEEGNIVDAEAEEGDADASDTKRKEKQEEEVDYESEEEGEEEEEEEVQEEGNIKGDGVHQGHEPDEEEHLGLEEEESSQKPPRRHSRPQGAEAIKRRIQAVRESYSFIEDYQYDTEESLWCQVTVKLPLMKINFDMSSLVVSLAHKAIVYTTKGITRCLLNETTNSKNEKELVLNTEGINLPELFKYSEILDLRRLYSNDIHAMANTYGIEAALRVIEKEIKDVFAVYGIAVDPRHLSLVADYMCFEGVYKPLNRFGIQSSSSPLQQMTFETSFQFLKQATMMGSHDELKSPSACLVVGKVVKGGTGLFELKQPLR

Consider “{Cu[(CH3)3 N.BH2 CO2 ]2.(CH3)3 N.BH2 COOH} [Compound I]”, for which the ribonucleotide reductase inhibition entry on ribonucleotide reductase is reported as “not inhibited”. Besides, the “ribosomal ribonucleic acid polymerase inhibition” value in assay [1] was “not inhibited”.
